Measured values published in US11059853B2, “Crystalline or amorphous form of steroid derivative FXR agonist, preparation method therefor and use thereof” (Chia Tai Tianqing Pharmaceutical Group Co., Ltd., priority 2017, dated 2021).

How the values were obtained:
[1] = Solid-state stability test (XRPD detection); assay type: physicochemical; conditions: room temperature/75% RH, 40° C./75% RH, 60° C./75% RH (all open); for Solid-state stability: crystalline form by XRPD compared with Day 0: room temperature/92.5% RH, Day 5 and Day 10
Experimental: In the present application, the X-ray powder diffraction patterns are measured by the following method: instrument: Bruker D8 ADVANCE X-ray diffractometer; method: target: Cu: K-Alpha; wavelength: λ=1.54179 Å; tube voltage: 40 kV; divergence slit: 0.60 mm; detector slit: 10.50 mm; antiscattering slit: 7.10 mm; tube current: 40 mA; scan range: 4° to 40°; scanning speed: 0.12 sec/step, 0.02°/step; sample tray rotation speed: 15 rpm.
The solid-state stability of crystalline Form A was examined under the following conditions: 1) 40° C. (open), 2) 60° C. (open), 3) room temperature/92.5% RH (open), 4) room temperature/75% RH (open), 5) 40° C./75% RH (open), and 6) 60° C./75% RH (open), wherein the room temperature was selected from 20° C. to 30° C.
(§1) Several samples of crystalline Form A in a suitable amount were taken, and placed on the bottom of the glass specimen bottles and spread into a thin layer. The bottles with the samples to be placed under the abovementioned conditions were capped with aluminum-foil paper which has been punched with several small holes, which ensures that the samples could be in full contact with the ambient air.
The solid-state stability of crystalline Form B was examined under the following conditions: 1) room temperature/92.5% RH (open), 2) room temperature/75% RH (open), 3) 40° C./75% RH (open), and 4) 60° C./75% RH (open), which the room temperature was selected from 20° C. to 30° C.
as §1, with “B” for “A”
The solid-state stability for the solid amorphous form of the compound of formula I was examined under the following conditions: 1) room temperature/75% RH (open), 2) 40° C./75% RH (open), 3) 60° C./75% RH (open), wherein the room temperature was selected from 20° C. to 30° C. […]

[2] = molecular target: T1, Glutathione-S-transferase-labeled FXR human protein (Homo sapiens, UniProt Q96RI1); experiment: FXR biochemical experiment (AlphaScreen, coactivator recruitment)
T1 sequence (Q96RI1 1-486): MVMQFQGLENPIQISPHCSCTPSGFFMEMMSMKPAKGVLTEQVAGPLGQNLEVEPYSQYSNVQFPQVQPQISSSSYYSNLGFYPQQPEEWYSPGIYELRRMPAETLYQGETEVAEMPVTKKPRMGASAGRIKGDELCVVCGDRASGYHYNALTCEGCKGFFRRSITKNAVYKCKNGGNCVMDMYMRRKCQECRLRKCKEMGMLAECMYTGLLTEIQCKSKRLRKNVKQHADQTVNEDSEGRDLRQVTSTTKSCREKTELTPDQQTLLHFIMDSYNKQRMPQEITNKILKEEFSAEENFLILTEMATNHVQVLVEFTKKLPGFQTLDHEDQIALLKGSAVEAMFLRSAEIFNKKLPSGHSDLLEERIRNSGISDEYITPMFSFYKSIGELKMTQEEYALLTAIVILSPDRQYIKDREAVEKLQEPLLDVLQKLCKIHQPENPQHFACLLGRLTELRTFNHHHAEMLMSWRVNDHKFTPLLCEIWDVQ
Experimental: The activation effect of the compound on FXR binding reaction was detected by AlphaScreen. […] Protein: Glutathione-S-transferase-labeled FXR human protein (Invitrogen) 2. Co-activator: Biotin-labeled steroid receptor coactivator (Anaspec) 3. […] Compound Dilution: The compound to be tested was prepared as a 40 μM DMSO solution, and then diluted 3-fold to 10 concentration points. The reference compound was prepared as a 400 μM DMSO solution, and then diluted 1.5-fold to 10 concentration points. The diluted DMSO solution was added to the wells of a 384-well plate in a volume of 150 nL per well. 2. […] 4. […] The operation during the experimental process was protected from light. The incubation was performed for 1 hour at room temperature. 5. […] The operation during the experimental process was protected from light. The incubation was performed for 1 hour at room temperature. 6. EC50 test: Envision was used with excitation at 680 nm to read the absorbance signals at 520-620 nm. 7. Analytical data: The data were analyzed via using Prism 5.0, and the EC50 values of the activation effects of the compound were calculated.

[3] = molecular target: T2, FXR (FXR HEK 293T DA cells) (Homo sapiens, UniProt Q96RI1); experiment: FXR cell experiment (β-lactamase reporter gene); assay type: cell-based
T2 sequence (Q96RI1 262-486 limits assumed): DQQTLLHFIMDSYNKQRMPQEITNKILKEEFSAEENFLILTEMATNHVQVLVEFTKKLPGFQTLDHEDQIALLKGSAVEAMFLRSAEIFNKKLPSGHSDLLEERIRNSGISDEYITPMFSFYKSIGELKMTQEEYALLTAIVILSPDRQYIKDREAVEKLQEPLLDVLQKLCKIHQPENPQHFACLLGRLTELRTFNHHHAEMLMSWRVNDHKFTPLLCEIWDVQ
Experimental: 2. Cell culture medium: DMEM medium supplemented with 10% serum and Penicillin/Streptomycin (1×)
3. Detection reagent: GeneBLAzer® Reporter Gene Detection Kit (Invitrogen)
1. Compound Dilution: The compound to be tested was prepared as a 100 μM DMSO solution, and then the compound was diluted 3-fold to 10 concentration points. The reference compound was prepared as a 100 μM DMSO solution, and then diluted 1.3-fold to 10 concentration points. The diluted DMSO solution was added to the wells of a 384-well plate in a volume of 200 nL per well.
3. The 384-well plate was incubated at 37° C., 5% CO2 for 16 hours.
4. 6 μL of 1 mM LiveBLAzer™-FRET 13/G (CCF4-AM) substrate was mixed with 60 μL of B solution and 934 μL of C solution, and added to the wells of the 384-well plate in a volume of 8 μL per well.
5. The 384-well plate was incubated in dark for 2 hours at room temperature.
7. Analytical data: The data was analyzed via using Prism 5.0, and the EC50 values of the activation effects of the compound were calculated.

[4] = Pharmacokinetics in mice administrated with single compound; assay type: in vivo, mice (C57BL/6J); conditions: mouse, plasma, male C57BL/6J mice; for bioavailability: oral 10 mg/kg vs intravenous 2 mg/kg; for AUC / Cmax / Tmax: oral (intragastrical) 10 mg/kg
Experimental: 12 male mice (C57BL/6J) were randomly divided into two groups, i.e., 6 mice per group. […] Plasma (using K2-EDTA as anticoagulant) samples were taken at 0.083, 0.25, 0.5, 1, 2, 4, 6, 8 and 24 hours in the intravenous administration group after administration; and plasma samples were taken at 0.25, 0.5, 1, 2, 4, 6, 8 and 24 hours in the oral administration group after administration. For 6 animals in each group, blood samples were collected for 3 animals at one time point. The first batch of 3 animals was alternately sampled with the second batch of 3 animals. Plasma sample analysis was performed by using LC-MS/MS. The resultant plasma concentrations were plotted with respect to time, and PK parameters were calculated by using Phoenix WinNonlin 6.3.

[5] = Test for hygroscopicity, Dynamic Vapor Sorption (DVS); assay type: physicochemical; conditions: 25±1° C., 80±2% RH
Experimental: Dynamic Vapor Sorption (DVS) analysis was performed on crystalline Form A and the solid amorphous form of the compound of formula I by the following process and conditions: the samples (10 to 15 mg) were placed in the sample pan; instrument model: SMS DVS Advantage Dynamic Vapor Sorption; temperature: 25° C.; balance: dm/dt=0.01%/min (Min: 10 min, Max: 180 min); drying: for 120 min at 0% RH; RH (%) gradient for testing: 10%; the RH (%) range for gradient testing: 0%-90%-0%. The hygroscopicity was evaluated using the following scale: […]

Compound | bioavailability [4] | AUC [4] | Cmax [4] | Tmax [4] | hygroscopic weight gain [5] | also measured
CC[C@H]1[C@@H](O)[C@@H]2[C@H](CC[C@]3(C)[C@@H]([C@H](C)CCOc4ncc(C(=O)O)cc4Cl)CC[C@@H]23)[C@@]2(C)CC[C@@H](O)C[C@@H]12 [crystalline Form B] | – | – | – | – | – | Solid-state stability: crystalline form by XRPD compared with Day 0 [1]: remained unchanged
CC[C@H]1[C@@H](O)[C@@H]2[C@H](CC[C@]3(C)[C@@H]([C@H](C)CCOc4ncc(C(=O)O)cc4Cl)CC[C@@H]23)[C@@]2(C)CC[C@@H](O)C[C@@H]12 [The compound of formula I] | 20% | 1.11 µM·h | 1780 nM | 30 min | – | EC50 ([2]; AlphaScreen, GST-FXR human protein with biotin-labeled steroid receptor coactivator, read-out: FXR enzyme activity EC50): 2.5 nM; FXR enzyme activity Efficacy ([2]; highest signal relative to the reference compound): 248%; EC50 ([3]; FXR HEK 293T DA cells, β-lactamase reporter gene, 16 hours, read-out: FXR cell viability EC50): 3 nM; FXR cell viability Efficacy ([3]; highest signal relative to reference compound CDCA): 150%
CC[C@H]1[C@@H](O)[C@@H]2[C@H](CC[C@]3(C)[C@@H]([C@H](C)CCOc4ncc(C(=O)O)cc4Cl)CC[C@@H]23)[C@@]2(C)CC[C@@H](O)C[C@@H]12 [solid amorphous form of the compound of formula I] | – | – | – | – | 1.775% | Solid-state stability: XRPD compared with Day 0 ([1]; Day 10 and one month): remained unchanged
CC[C@H]1[C@@H](O)[C@@H]2[C@H](CC[C@]3(C)[C@@H]([C@H](C)CCOc4ncc(C(=O)O)cc4Cl)CC[C@@H]23)[C@@]2(C)CC[C@@H](O)C[C@@H]12 [crystalline Form A] | – | – | – | – | 0.835% | Solid-state stability: crystalline form by XRPD compared with Day 0 ([1]; 40° C., 60° C.): remained unchanged
CC[C@H]1[C@@H](O)[C@@H]2[C@H](CC[C@]3(C)[C@@H]([C@H](C)CCC(=O)O)CC[C@@H]23)[C@@]2(C)CC[C@@H](O)C[C@@H]12 [Obeticholic acid, reference compound] | 13% | 0.993 µM·h | 1010 nM | 18 min | – | –
